Source: PubChem BioAssay (NCI)
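Results reflect a 48-hour exposure of cells in 96-well plates to compound at five concentrations. At the GI50, growth is halved. TGI is the concentration that stops growth completely.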

Key:
Assay in all cases: DTP human tumour cell line panel, 48 h
[1] = test system: 786-0 renal
[2] = test system: A498 renal
[3] = test system: A549 NSCLC
[4] = test system: ACHN renal
[5] = test system: BT-549 breast
[6] = test system: CAKI-1 renal
[7] = test system: CCRF-CEM leukemia
[8] = test system: COLO 205 colon
[9] = test system: DU-145 prostate
[10] = test system: EKVX NSCLC
[11] = test system: HCC-2998 colon
[12] = test system: HCT-116 colon
[13] = test system: HCT-15 colon
[14] = test system: HL-60(TB) leukemia
[15] = test system: HOP-62 NSCLC
[16] = test system: HOP-92 NSCLC
[17] = test system: HS 578T breast
[18] = test system: HT29 colon
[19] = test system: IGROV1 ovarian
[20] = test system: K-562 leukemia
[21] = test system: KM12 colon
[22] = test system: LOX IMVI melanoma
[23] = test system: M14 melanoma
[24] = test system: MALME-3M melanoma
[25] = test system: MCF7 breast
[26] = test system: MDA-MB-435
[27] = test system: MDA-MB-468 breast
[28] = test system: MOLT-4 leukemia
[29] = test system: NCI-H226 lung
[30] = test system: NCI-H23 lung
[31] = test system: NCI-H460 lung
[32] = test system: NCI-H522 lung
[33] = test system: NCI/ADR-RES ovarian
[34] = test system: OVCAR-3 ovarian
[35] = test system: OVCAR-4 ovarian
[36] = test system: OVCAR-5 ovarian
[37] = test system: OVCAR-8 ovarian
[38] = test system: PC-3 prostate
[39] = test system: RPMI-8226 leukemia
[40] = test system: RXF 393 renal
[41] = test system: SF-268 CNS
[42] = test system: SF-295 CNS
[43] = test system: SF-539 CNS
[44] = test system: SK-MEL-28 melanoma
[45] = test system: SK-MEL-5 melanoma
[46] = test system: SK-OV-3 ovarian
[47] = test system: SN12C renal
[48] = test system: SNB-19 CNS
[49] = test system: SR leukemia
[50] = test system: SW-620 colon
[51] = test system: T-47D breast
[52] = test system: TK-10 renal
[53] = test system: U251 CNS
[54] = test system: UACC-257 melanoma
[55] = test system: UACC-62 melanoma

c1n[nH]cc1-c1nc2ccc3[nH]ncc3c2c2c1CC1(CC2)COC1 gave a GI50 [1] of 13.4 µM, a TGI [1] of 32.7 µM and a GI50 [2] of 15 µM. It also gave a TGI [2] of 30.9 µM, a GI50 [3] of 27.8 µM and a TGI [3] greater than 100 µM. For the same compound, the GI50 [4] was 16.8 µM, the TGI [4] was greater than 100 µM and the GI50 [5] was 4.09 µM. The TGI [5] was 16.6 µM, the GI50 [6] was 19.2 µM and the TGI [6] was 86.5 µM. The GI50 [7] was 29.9 µM, the TGI [7] was greater than 100 µM and the GI50 [8] was 6.13 µM. It also gave a TGI [8] of 21.2 µM, a GI50 [9] of 26.2 µM and a TGI [9] of 95.5 µM. It also gave a GI50 [10] of 22.4 µM, a TGI [10] of 83.6 µM and a GI50 [11] of 15.5 µM. For the same compound, the TGI [11] was 40.6 µM, the GI50 [12] was 6.02 µM and the TGI [12] was 37.7 µM. It also gave a GI50 [13] of 23.2 µM, a TGI [13] greater than 100 µM and a GI50 [14] of 13.6 µM. The TGI [14] was 39.3 µM, the GI50 [15] was 18.2 µM and the TGI [15] was 47.3 µM. The GI50 [16] was 23.1 µM, the TGI [16] was 63.1 µM and the GI50 [17] was 8.53 µM. The TGI [17] was 39.3 µM, the GI50 [18] was 26.3 µM and the TGI [18] was greater than 100 µM. For the same compound, the GI50 [19] was 19.3 µM, the TGI [19] was 57.3 µM and the GI50 [20] was 13.7 µM. The TGI [20] was greater than 100 µM, the GI50 [21] was 22.3 µM and the TGI [21] was 51.8 µM. For the same compound, the GI50 [22] was 11.3 µM, the TGI [22] was 24.6 µM and the GI50 [23] was 12.9 µM. It also gave a TGI [23] of 28 µM, a GI50 [24] of 15.7 µM and a TGI [24] of 30.1 µM. For the same compound, the GI50 [25] was 20.4 µM, the TGI [25] was 69.5 µM and the GI50 [26] was 14.4 µM. It also gave a TGI [26] of 32.4 µM, a GI50 [27] of 3.53 µM and a TGI [27] of 13 µM. The GI50 [28] was 15.5 µM, the TGI [28] was 48.2 µM and the GI50 [29] was 16 µM. The TGI [29] was 37.1 µM, the GI50 [30] was 15.1 µM and the TGI [30] was 32.7 µM. It also gave a GI50 [31] of 17.1 µM, a TGI [31] of 35.9 µM and a GI50 [32] of 3.43 µM. For the same compound, the TGI [32] was 17.1 µM, the GI50 [33] was greater than 100 µM and the TGI [33] was greater than 100 µM. It also gave a GI50 [34] of 13.7 µM, a TGI [34] of 59.2 µM and a GI50 [35] of 25 µM. The TGI [35] was 70.4 µM, the GI50 [36] was 25.6 µM and the TGI [36] was 77.7 µM. The GI50 [37] was 16.3 µM, the TGI [37] was 35.5 µM and the GI50 [38] was 26.5 µM. It also gave a TGI [38] greater than 100 µM, a GI50 [39] of 21.3 µM and a TGI [39] of 68 µM. It also gave a GI50 [40] of 4.52 µM, a TGI [40] of 17.6 µM and a GI50 [41] of 16.2 µM. It also gave a TGI [41] of 40.2 µM, a GI50 [42] of 23.4 µM and a TGI [42] of 58.4 µM. For the same compound, the GI50 [43] was 12.2 µM, the TGI [43] was 25.5 µM and the GI50 [44] was 12.9 µM. For the same compound, the TGI [44] was 27.7 µM, the GI50 [45] was 16.3 µM and the TGI [45] was 30.1 µM. For the same compound, the GI50 [46] was 5.9 µM, the TGI [46] was 34.3 µM and the GI50 [47] was 13.9 µM. It also gave a TGI [47] of 38 µM, a GI50 [48] of 17.3 µM and a TGI [48] of 68.1 µM. It also gave a GI50 [49] of 3.36 µM, a TGI [49] of 16.9 µM and a GI50 [50] of 4.98 µM. The TGI [50] was 52.6 µM, the GI50 [51] was 12.7 µM and the TGI [51] was 57.3 µM. It also gave a GI50 [52] of 15 µM, a TGI [52] of 67.6 µM and a GI50 [53] of 17.7 µM. The TGI [53] was greater than 100 µM, the GI50 [54] was 17 µM and the TGI [54] was 39 µM. It also gave a GI50 [55] of 5.76 µM and a TGI [55] of 18.7 µM.
